According to patent publication US11517622B2, “Combination of regorafenib and PD-1/PD-L1(2) inhibitors for treating cancer” (BAYER AKTIENGESELLSCHAFT, priority 2017, dated 2022):

Assays:
CT26 syngeneic tumors = assay: Liver metastases in syngenic murine CT26 CRC model (orthotopic tumors); format: in vivo, mice
Procedure: The combinatorial activity of regorafenib and anti-mouse PD-1 antibody (RMP1-14, Peng et al., Cancer Res., (2012) 72(20), 5209-5218) was investigated in a syngenic murine CT26 CRC model
CT26 syngeneic tumors were grown orthotopically in mice (Abou-Elkacem et al., Mol Cancer Ther. 2013 July; 12(7):1322-31) and treated with regorafenib and/or anti-mouse PD-1 antibody (RMP1-14) according to the following regimens:
a) regorafenib alone at a dose of 30 mg/kg per day once daily for 10 days as a PluronicF68/PEG400/Propylenglycol/water (12/34/34/20) po (per oral) formulation using the formulation vehicle alone as control or in a combination with an unspecific control antibody given intraperitoneally (i.p.) at a dose of 20 mg/kg in PBS every third day. b) anti-mouse PD-1 antibody (RMP1-14) alone dosed at 20 mg/kg every third day for four times as a PBS i.p. formulation and an unspecific antibody was used as control c) in combination, regorafenib at a dose of 20 mg/kg per day once daily for 10 days as a PluronicF68/PEG400/Propylenglycol/water (/12/34/34/20) p.o. formulation and anti-mouse PD-1 antibody (RMP1-14) dosed at 20 mg/kg every third day for four times as a PBS i.p. formulation,
Mice were sacrificed at the end of treatment or at the end of the observation period and livers were screened macroscopically for metastases on their surface. The number of mice with liver metastases was then related to the total number of mice in the respective study arm.

MC38 syngeneic tumors = assay: Antitumor activity in syngenic murine MC38 CRC model (subcutaneous tumors); format: in vivo, mice
Procedure: The combinatorial activity of regorafenib and anti-mouse PD-1 antibody (RMP1-14, Peng et al., Cancer Res., (2012) 72(20), 5209-5218) was investigated in a syngenic murine MC38 CRC model
MC38 syngeneic tumors were grown subcutaneously in mice and treated with regorafenib and/or anti-mouse PD-1 antibody (RMP1-14) according to the following regimens: […]
Control animals were treated concomitantly with the regorafenib vehicle (PluronicF68/PEG400/Propylenglycol (15/42,5/42,5+20% aqua)) and a non-binding isotype control antibody (rat IgG2a, clone 2A3). Tumor growth was monitored by caliper measurement and the tumor area was calculated using the formula a×b where a and b are the long and short diameters of the tumor, respectively. Tumor weights were measured after completion of the study. Tumor vs control (T/C) was calculated using vehicle treated animals as reference.

[1] = d 14 p.i., after treatment, single agent
[2] = d 25 p.i., observation period after treatment stop at d 14, regorafenib plus control antibody

In the case of `CNC(=O)c1cc(Oc2ccc(NC(=O)Nc3ccc(Cl)c(C(F)(F)F)c3)c(F)c2)ccn1` [Regorafenib, 4{4-[3-(4-chloro-3-trifluoromethylphenyl)-ureido]-3-fluorophenoxy}-pyridine-2-carboxylic acid methylamide], the “# of animals with mets” value (CT26 syngeneic tumors; [1]) is reported as 0, the “% animals wirth mets” value (CT26 syngeneic tumors; [1]) is reported as 0% and the “# of animals with mets” value (CT26 syngeneic tumors; [2]) is reported as 8. The “% animals wirth mets” value (CT26 syngeneic tumors; [2]) was 100%, the “T/C (area)” value (MC38 syngeneic tumors; regimen a): regorafenib 3 mg/kg po once daily for 15 days plus isotype control 10 mg/kg ip, tumor area vs vehicle) was 0.68 and the “T/C (weight)” value (MC38 syngeneic tumors; regimen a): regorafenib 3 mg/kg po once daily for 15 days plus isotype control 10 mg/kg ip, tumor weight at study end vs vehicle) was 0.64. The “growth of MC38 tumors vs control” value (MC38 syngeneic tumors; single agents) was “inhibited the growth of MC38 tumors vs control”.
